Measurements as given in the kinase profiling compilation of Christmann-Franck et al. (2016).
pKd: −log10 of the molar value. Values belong to the molecule of their own block, whether it stands above or below them.

Tests used:
PRKAA2 (human) = PRKAA2 (human) (UniProt P54646); assay: KINOMEscan competition binding; conditions: compound 10.0 µM
TLK1 (human) = TLK1 (human) (UniProt Q9UKI8); assay: KINOMEscan competition binding; conditions: compound 10.0 µM
MARK2 (human) = MARK2 (human) (UniProt Q7KZI7); assay: KINOMEscan competition binding; conditions: compound 10.0 µM
MAP4K5 (human) = MAP4K5 (human) (UniProt Q9Y4K4); assay: KINOMEscan competition binding; conditions: compound 10.0 µM
MAP3K11 (human) = MAP3K11 (human) (UniProt Q16584); assay: KINOMEscan competition binding; conditions: compound 10.0 µM
FGR (human) = FGR (human) (UniProt P09769); assay: KINOMEscan competition binding; conditions: compound 10.0 µM
PRKAA1 (human) = PRKAA1 (human) (UniProt Q13131); assay: KINOMEscan competition binding; conditions: compound 10.0 µM
SRPK1 (human) = SRPK1 (human) (UniProt Q96SB4); assay: KINOMEscan competition binding; conditions: compound 10.0 µM
MAP4K1 (human) = MAP4K1 (human) (UniProt Q92918); assay: KINOMEscan competition binding; conditions: compound 10.0 µM
GSK3A (human) = GSK3A (human) (UniProt P49840); assay: KINOMEscan competition binding; conditions: compound 10.0 µM
ACVR2A (human) = ACVR2A (human) (UniProt P27037); assay: KINOMEscan competition binding; conditions: compound 10.0 µM
ITK (human) = ITK (human) (UniProt Q08881); assay: KINOMEscan competition binding; conditions: compound 10.0 µM
EPHA3 (human) = EPHA3 (human) (UniProt P29320); assay: KINOMEscan competition binding; conditions: compound 10.0 µM
AXL (human) = AXL (human) (UniProt P30530); assay: KINOMEscan competition binding; conditions: compound 10.0 µM
TNIK (human) = TNIK (human) (UniProt Q9UKE5); assay: KINOMEscan competition binding; conditions: compound 10.0 µM
CSNK2A2 (human) = CSNK2A2 (human) (UniProt P19784); assay: KINOMEscan competition binding; conditions: compound 10.0 µM
PDPK1 (human) = PDPK1 (human) (UniProt O15530); assay: KINOMEscan competition binding; conditions: compound 10.0 µM
CAMKK1 (human) = CAMKK1 (human) (UniProt Q8N5S9); assay: KINOMEscan competition binding; conditions: compound 10.0 µM
HCK (human) = HCK (human) (UniProt P08631); assay: KINOMEscan competition binding; conditions: compound 10.0 µM
ACVRL1 (human) = ACVRL1 (human) (UniProt P37023); assay: KINOMEscan competition binding; conditions: compound 10.0 µM
ACVR1 (human) = ACVR1 (human) (UniProt Q04771); assay: KINOMEscan competition binding; conditions: compound 10.0 µM
RET (human) = RET (human) (UniProt P07949); assay: KINOMEscan competition binding; conditions: compound 10.0 µM
MAPK10 (human) = MAPK10 (human) (UniProt P53779); assay: KINOMEscan competition binding; conditions: compound 10.0 µM
EPHA1 (human) = EPHA1 (human) (UniProt P21709); assay: KINOMEscan competition binding; conditions: compound 10.0 µM
AURKB (human) = AURKB (human) (UniProt Q96GD4); assay: KINOMEscan competition binding; conditions: compound 10.0 µM
ALK (human) = ALK (human) (UniProt Q9UM73); assay: KINOMEscan competition binding; conditions: compound 10.0 µM
BRAF (human) = BRAF (human) (UniProt P15056); assay: KINOMEscan competition binding; conditions: compound 10.0 µM
CSNK2A1 (human) = CSNK2A1 (human) (UniProt P68400); assay: KINOMEscan competition binding; conditions: compound 10.0 µM
MET (human) = MET (human) (UniProt P08581); assay: KINOMEscan competition binding; conditions: compound 10.0 µM
RAF1 (human) = RAF1 (human) (UniProt P04049); assay: KINOMEscan competition binding; conditions: compound 10.0 µM
DAPK2 (human) = DAPK2 (human) (UniProt Q9UIK4); assay: KINOMEscan competition binding; conditions: compound 10.0 µM
CAMK2A (human) = CAMK2A (human) (UniProt Q9UQM7); assay: KINOMEscan competition binding; conditions: compound 10.0 µM
GAK (human) = GAK (human) (UniProt O14976); assay: KINOMEscan competition binding; conditions: compound 10.0 µM
[1] = target: TYK2 JH1 catalytic (human) (UniProt P29597); assay: KINOMEscan competition binding; conditions: compound 10.0 µM
CSF1R (human) = CSF1R (human) (UniProt P07333); assay: KINOMEscan competition binding; conditions: compound 10.0 µM
TESK1 (human) = TESK1 (human) (UniProt Q15569); assay: KINOMEscan competition binding; conditions: compound 10.0 µM
MAPK12 (human) = MAPK12 (human) (UniProt P53778); assay: KINOMEscan competition binding; conditions: compound 10.0 µM
KIT (human) = KIT (human) (UniProt P10721); assay: KINOMEscan competition binding; conditions: compound 10.0 µM
MST4 (human) = MST4 (human) (UniProt Q9P289); assay: KINOMEscan competition binding; conditions: compound 10.0 µM
TNK1 (human) = TNK1 (human) (UniProt Q13470); assay: KINOMEscan competition binding; conditions: compound 10.0 µM
PTK2B (human) = PTK2B (human) (UniProt Q14289)

MAP4K1 (human), sequence (Q92918 whole entry, looked up): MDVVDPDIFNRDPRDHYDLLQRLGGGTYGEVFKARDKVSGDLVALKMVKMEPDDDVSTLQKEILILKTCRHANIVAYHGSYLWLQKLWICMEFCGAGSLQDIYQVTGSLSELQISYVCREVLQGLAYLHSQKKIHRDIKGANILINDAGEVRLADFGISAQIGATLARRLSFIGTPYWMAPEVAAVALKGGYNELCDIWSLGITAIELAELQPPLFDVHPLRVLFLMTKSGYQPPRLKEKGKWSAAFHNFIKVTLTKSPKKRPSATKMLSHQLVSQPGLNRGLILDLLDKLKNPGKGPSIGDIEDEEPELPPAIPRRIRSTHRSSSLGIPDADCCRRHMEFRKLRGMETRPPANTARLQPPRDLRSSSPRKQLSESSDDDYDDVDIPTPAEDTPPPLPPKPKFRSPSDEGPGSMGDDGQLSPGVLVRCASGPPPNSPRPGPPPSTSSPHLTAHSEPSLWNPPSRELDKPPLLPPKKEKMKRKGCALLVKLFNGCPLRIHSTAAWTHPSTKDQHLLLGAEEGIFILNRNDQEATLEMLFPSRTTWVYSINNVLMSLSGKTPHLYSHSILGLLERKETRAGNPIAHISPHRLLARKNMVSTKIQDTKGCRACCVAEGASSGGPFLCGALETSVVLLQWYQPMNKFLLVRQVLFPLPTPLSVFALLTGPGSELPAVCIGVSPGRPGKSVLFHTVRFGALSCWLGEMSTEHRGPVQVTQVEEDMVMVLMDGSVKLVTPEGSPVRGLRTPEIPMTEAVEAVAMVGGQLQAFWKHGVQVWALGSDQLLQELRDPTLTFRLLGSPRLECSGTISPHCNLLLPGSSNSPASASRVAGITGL
CSNK2A2 (human), sequence (P19784 whole entry, looked up): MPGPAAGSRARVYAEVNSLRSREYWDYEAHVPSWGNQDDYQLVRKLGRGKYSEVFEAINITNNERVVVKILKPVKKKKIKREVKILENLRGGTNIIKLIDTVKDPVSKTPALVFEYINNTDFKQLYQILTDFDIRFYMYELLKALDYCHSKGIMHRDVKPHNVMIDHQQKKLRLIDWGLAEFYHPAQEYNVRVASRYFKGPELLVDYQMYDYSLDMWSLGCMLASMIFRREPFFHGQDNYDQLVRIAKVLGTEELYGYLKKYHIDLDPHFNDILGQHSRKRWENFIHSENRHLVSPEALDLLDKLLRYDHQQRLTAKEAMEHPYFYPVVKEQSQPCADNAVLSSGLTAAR
AURKB (human), sequence (Q96GD4 whole entry, looked up): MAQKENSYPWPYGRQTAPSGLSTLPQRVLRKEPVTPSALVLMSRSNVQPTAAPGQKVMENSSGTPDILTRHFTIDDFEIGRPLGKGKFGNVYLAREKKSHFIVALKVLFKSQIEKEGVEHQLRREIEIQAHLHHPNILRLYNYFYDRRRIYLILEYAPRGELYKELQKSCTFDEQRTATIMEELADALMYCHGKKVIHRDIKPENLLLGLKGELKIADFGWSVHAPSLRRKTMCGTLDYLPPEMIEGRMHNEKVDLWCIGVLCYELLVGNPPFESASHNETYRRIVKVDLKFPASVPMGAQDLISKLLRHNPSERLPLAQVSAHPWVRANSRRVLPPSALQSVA
PRKAA1 (human), sequence (Q13131 whole entry, looked up): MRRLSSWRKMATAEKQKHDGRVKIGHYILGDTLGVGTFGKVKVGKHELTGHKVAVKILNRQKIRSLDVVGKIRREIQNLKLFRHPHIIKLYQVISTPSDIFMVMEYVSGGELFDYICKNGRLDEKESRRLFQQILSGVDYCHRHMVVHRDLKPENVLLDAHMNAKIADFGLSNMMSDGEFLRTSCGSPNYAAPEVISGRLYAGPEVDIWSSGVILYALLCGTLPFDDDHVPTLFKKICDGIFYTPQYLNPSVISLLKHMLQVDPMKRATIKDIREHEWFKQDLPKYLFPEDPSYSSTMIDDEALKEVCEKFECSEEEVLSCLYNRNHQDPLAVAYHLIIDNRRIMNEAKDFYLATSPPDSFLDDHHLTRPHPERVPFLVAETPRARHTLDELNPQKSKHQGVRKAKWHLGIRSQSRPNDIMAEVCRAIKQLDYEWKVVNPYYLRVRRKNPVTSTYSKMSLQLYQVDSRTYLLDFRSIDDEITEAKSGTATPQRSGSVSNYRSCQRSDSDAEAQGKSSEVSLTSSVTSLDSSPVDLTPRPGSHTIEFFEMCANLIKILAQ
MARK2 (human), sequence (Q7KZI7 whole entry, looked up): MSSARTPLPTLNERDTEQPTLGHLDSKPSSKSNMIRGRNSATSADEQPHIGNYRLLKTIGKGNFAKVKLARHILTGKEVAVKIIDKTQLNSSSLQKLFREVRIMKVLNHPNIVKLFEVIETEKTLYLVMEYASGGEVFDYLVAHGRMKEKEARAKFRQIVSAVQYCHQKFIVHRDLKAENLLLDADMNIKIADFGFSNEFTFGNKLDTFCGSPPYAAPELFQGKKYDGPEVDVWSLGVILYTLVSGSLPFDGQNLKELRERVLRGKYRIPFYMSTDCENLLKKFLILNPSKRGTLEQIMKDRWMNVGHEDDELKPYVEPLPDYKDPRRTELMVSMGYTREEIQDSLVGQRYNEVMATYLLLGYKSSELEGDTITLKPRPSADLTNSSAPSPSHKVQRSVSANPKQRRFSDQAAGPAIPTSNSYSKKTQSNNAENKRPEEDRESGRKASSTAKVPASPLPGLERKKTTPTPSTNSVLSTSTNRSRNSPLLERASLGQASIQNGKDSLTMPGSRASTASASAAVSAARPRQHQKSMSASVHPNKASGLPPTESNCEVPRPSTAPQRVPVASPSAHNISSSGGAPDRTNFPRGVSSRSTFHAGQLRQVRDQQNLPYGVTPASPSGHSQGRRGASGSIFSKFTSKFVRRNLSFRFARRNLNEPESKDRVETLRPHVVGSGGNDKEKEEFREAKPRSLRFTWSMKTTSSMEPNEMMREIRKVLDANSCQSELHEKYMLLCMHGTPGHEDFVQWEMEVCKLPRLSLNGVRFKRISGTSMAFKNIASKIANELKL
ACVR1 (human), sequence (Q04771 whole entry, looked up): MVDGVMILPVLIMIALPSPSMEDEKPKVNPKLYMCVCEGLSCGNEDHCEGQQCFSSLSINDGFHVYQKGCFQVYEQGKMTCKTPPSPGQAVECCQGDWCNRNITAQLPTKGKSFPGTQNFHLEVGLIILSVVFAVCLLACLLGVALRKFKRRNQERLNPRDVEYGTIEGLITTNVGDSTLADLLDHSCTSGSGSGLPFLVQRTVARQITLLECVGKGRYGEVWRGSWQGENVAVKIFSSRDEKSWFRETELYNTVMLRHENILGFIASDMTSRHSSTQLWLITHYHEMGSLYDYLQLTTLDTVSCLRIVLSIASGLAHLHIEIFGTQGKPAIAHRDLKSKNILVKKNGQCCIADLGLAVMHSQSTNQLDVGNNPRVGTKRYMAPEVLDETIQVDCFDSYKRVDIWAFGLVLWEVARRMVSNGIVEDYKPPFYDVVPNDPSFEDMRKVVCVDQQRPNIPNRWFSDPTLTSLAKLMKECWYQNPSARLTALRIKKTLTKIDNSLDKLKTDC
CSNK2A1 (human), sequence (P68400 whole entry, looked up): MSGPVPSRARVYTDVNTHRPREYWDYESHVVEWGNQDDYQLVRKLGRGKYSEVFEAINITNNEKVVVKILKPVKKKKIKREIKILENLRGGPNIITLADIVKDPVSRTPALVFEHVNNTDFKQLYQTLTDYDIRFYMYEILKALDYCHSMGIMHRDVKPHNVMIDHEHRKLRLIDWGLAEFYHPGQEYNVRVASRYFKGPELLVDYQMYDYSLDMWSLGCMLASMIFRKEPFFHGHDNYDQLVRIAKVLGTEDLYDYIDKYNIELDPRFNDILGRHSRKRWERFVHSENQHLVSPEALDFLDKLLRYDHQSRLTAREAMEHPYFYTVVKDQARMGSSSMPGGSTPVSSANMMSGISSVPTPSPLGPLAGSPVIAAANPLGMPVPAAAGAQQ
FGR (human), sequence (P09769 whole entry, looked up): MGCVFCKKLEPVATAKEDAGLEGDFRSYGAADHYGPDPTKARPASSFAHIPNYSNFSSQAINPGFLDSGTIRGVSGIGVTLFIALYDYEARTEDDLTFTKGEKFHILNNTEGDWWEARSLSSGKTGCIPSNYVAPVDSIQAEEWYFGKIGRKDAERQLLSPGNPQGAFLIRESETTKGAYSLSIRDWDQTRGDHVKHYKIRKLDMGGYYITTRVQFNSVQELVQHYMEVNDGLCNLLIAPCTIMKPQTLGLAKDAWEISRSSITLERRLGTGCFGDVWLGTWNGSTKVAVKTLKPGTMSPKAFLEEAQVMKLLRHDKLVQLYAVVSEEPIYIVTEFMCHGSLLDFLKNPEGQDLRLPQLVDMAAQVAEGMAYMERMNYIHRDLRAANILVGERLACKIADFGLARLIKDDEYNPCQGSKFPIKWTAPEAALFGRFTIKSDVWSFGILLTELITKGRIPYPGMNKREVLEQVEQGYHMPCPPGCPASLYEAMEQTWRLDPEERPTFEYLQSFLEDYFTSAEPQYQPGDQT
CAMKK1 (human), sequence (Q8N5S9 whole entry, looked up): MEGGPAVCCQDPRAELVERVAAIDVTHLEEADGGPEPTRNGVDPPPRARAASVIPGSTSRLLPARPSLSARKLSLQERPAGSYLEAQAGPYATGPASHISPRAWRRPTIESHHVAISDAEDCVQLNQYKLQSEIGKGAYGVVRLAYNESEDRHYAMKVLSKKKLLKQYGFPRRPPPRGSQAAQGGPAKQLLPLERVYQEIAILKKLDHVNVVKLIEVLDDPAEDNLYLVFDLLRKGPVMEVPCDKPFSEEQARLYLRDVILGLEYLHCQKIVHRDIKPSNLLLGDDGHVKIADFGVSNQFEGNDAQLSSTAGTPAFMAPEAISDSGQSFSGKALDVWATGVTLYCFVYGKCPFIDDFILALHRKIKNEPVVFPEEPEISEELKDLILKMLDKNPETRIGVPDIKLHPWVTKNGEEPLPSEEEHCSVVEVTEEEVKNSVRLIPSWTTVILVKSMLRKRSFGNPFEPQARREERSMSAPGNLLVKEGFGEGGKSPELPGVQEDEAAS

- kinase still bound, per cent of control (PRKAA2 (human)): no effect (inactive)
- kinase still bound, per cent of control (TLK1 (human)): no effect (inactive)
- kinase still bound, per cent of control (MARK2 (human)): no effect (inactive)
- kinase still bound, per cent of control (MAP4K5 (human)): no effect (inactive)
- kinase still bound, per cent of control (MAP3K11 (human)): no effect (inactive)
- kinase still bound, per cent of control (FGR (human)): no effect (inactive)
- kinase still bound, per cent of control (PRKAA1 (human)): no effect (inactive)
- kinase still bound, per cent of control (SRPK1 (human)): no effect (inactive)
- kinase still bound, per cent of control (MAP4K1 (human)): no effect (inactive)
- kinase still bound, per cent of control (GSK3A (human)): no effect (inactive)
- kinase still bound, per cent of control (ACVR2A (human)): no effect (inactive)
- kinase still bound, per cent of control (ITK (human)): no effect (inactive)
- kinase still bound, per cent of control (EPHA3 (human)): no effect (inactive)
- kinase still bound, per cent of control (AXL (human)): no effect (inactive)
- kinase still bound, per cent of control (TNIK (human)): no effect (inactive)
- kinase still bound, per cent of control (CSNK2A2 (human)): no effect (inactive)
- kinase still bound, per cent of control (PDPK1 (human)): no effect (inactive)
- kinase still bound, per cent of control (CAMKK1 (human)): no effect (inactive)
- kinase still bound, per cent of control (HCK (human)): no effect (inactive)
- kinase still bound, per cent of control (ACVRL1 (human)): no effect (inactive)
- kinase still bound, per cent of control (ACVR1 (human)): no effect (inactive)
- kinase still bound, per cent of control (RET (human)): no effect (inactive)
- kinase still bound, per cent of control (MAPK10 (human)): no effect (inactive)
- kinase still bound, per cent of control (EPHA1 (human)): no effect (inactive)
- kinase still bound, per cent of control (AURKB (human)): no effect (inactive)
- kinase still bound, per cent of control (ALK (human)): no effect (inactive)
- kinase still bound, per cent of control (BRAF (human)): no effect (inactive)
- kinase still bound, per cent of control (CSNK2A1 (human)): no effect (inactive)
- kinase still bound, per cent of control (MET (human)): no effect (inactive)
- kinase still bound, per cent of control (RAF1 (human)): no effect (inactive)
Structure (SMILES): NC(=O)c1ccc(-c2cc(C(N)=O)c(N)c(-c3ccc(S(N)(=O)=O)cc3)c2)cc1

- kinase still bound, per cent of control (PRKAA2 (human)): 0%
- kinase still bound, per cent of control (TLK1 (human)): 0.75%
- kinase still bound, per cent of control (MARK2 (human)): 0.3%
- kinase still bound, per cent of control (MAP4K5 (human)): 0%
- kinase still bound, per cent of control (MAP3K11 (human)): 12.3%
- kinase still bound, per cent of control (FGR (human)): 0.1%
- kinase still bound, per cent of control (DAPK2 (human)): 3.8%
- kinase still bound, per cent of control (PRKAA1 (human)): 0%
- kinase still bound, per cent of control (SRPK1 (human)): 0%
- kinase still bound, per cent of control (MAP4K1 (human)): 0.5%
- kinase still bound, per cent of control (GSK3A (human)): 0.85%
- kinase still bound, per cent of control (ACVR2A (human)): 22.7%
- kinase still bound, per cent of control (ITK (human)): 0.1%
- kinase still bound, per cent of control (EPHA3 (human)): 0%
- kinase still bound, per cent of control (AXL (human)): 0%
- kinase still bound, per cent of control (TNIK (human)): 0%
- kinase still bound, per cent of control (CSNK2A2 (human)): 0%
- kinase still bound, per cent of control (PDPK1 (human)): 5.8%
- kinase still bound, per cent of control (CAMKK1 (human)): 0.1%
- kinase still bound, per cent of control (CAMK2A (human)): 0.5%
- kinase still bound, per cent of control (GAK (human)): 2.7%
- kinase still bound, per cent of control [1]: 0%
- kinase still bound, per cent of control (CSF1R (human)): 0%
- kinase still bound, per cent of control (HCK (human)): 0%
- kinase still bound, per cent of control (TESK1 (human)): 10.8%
- kinase still bound, per cent of control (ACVRL1 (human)): 0%
- kinase still bound, per cent of control (ACVR1 (human)): 0.1%
- kinase still bound, per cent of control (RET (human)): 0%
- kinase still bound, per cent of control (MAPK10 (human)): 0%
- kinase still bound, per cent of control (MAPK12 (human)): no effect (inactive)
- kinase still bound, per cent of control (EPHA1 (human)): 0.2%
- kinase still bound, per cent of control (AURKB (human)): 0%
- kinase still bound, per cent of control (ALK (human)): 0%
- kinase still bound, per cent of control (KIT (human)): 0.1%
- kinase still bound, per cent of control (BRAF (human)): no effect (inactive)
- kinase still bound, per cent of control (CSNK2A1 (human)): 0%
- kinase still bound, per cent of control (MST4 (human)): 17.2%
- kinase still bound, per cent of control (MET (human)): 0.3%
- kinase still bound, per cent of control (TNK1 (human)): 1%
- kinase still bound, per cent of control (RAF1 (human)): no effect (inactive)
- pKd (PTK2B (human)): 8.00
Structure (SMILES): CCS(=O)(=O)Nc1ccc2c(c1)[C@H](/C(=N/c1ccc(CN3CCCCC3)cc1)c1ccccc1)C(=O)N2
